“And” between values parts separate entries of the source, which are not always exact repeats. Equal entries are not always repeated. “Also recorded” adds a separate entry of the source.
What was measured:
Caco-2 cell monolayers = test: Unidirectional (A-to-B) permeability of zanamivir across Caco-2 cell monolayers with and without excipients; format: in vitro ADME; details: A-to-B, zanamivir 15 µg/mL
Description: Caco-2 cells were obtained from American Type Culture Collection (Rockville, MD). Stock cultures were maintained in flasks with DMEM medium supplemented with 10% FBS, 1% non-essential amino acids, 1 mmol/L sodium pyruvate, 100 IU/mL penicillin, and 100 µg/mL streptomycin in a humidified incubator (37°C, 5% CO2). Cells were harvested by trypsinization and seeded at 60,000 cells/cm^2 onto Costar Transwell® 12-well dual-chamber plates with collagen-coated, microporous polycarbonate membranes (1.13 cm^2 insert area, 0.4 µm pore size; Corning Life Sciences, Acton, MA) for permeability studies. The culture medium was changed three times per week.
Caco-2 cell monolayers that had grown for at least 20 days were subjected to batch quality control testing in which permeation rates were measured for atenolol, digoxin, estrone-3-sulfate, lucifer yellow (LY), and propranolol. In addition, the transepithelial electrical resistance (TEER) across each experimental monolayer was tested prior to an experiment.
Unidirectional (A-to-B) permeability of zanamivir was determined at 15 µg/mL in the absence and presence of varying concentrations of excipients in Caco-2 cell monolayers. The assay buffer was Hanks' balanced salt solution (HBSS) supplemented with 10 mM 4-(2-hydroxyethyl)-1-piperazineethanesulfonic acid (HEPES) and 15 mM D-glucose (HBSSg), pH 7.4. The dosing solutions on the apical side (0.5 mL) contained either zanamivir and excipients at each concentration being tested or zanamivir only (n = 4), while the receiver buffer in the bottom well (1.5 mL) was always excipient-free. The Caco-2 cell monolayers were incubated for 120 min in a humidified incubator (37°C, 5% CO2) after dosing in the apical chambers. Aliquots (200 µL each) of receiver buffer were sampled at 60 min, 90 min, and 120 min after dosing, with replacement by the same volume of blank buffer (at 60 min and 90 min). Donors were sampled at 0 and 120 min.
Experimental samples were identically treated.

[1] = Pharmacokinetics and absolute bioavailability after intraduodenal administration in rats; details: for Cmax / Tmax / AUC(0-t) / AUC(0-inf) / half-life / bioavailability: male, Sprague-Dawley, rat, plasma; for AUC(0-t): AUClast; for half-life: t1/2, intraduodenal; for bioavailability: other: intraduodenal, absolute, vs 1.5 mg intravenous
Text: Male Sprague-Dawley rats (Hilltop Labs, Scottdale, PA), 3 animals per treatment group, 250–350 grams in weight, were fitted with a jugular vein cannula (JVC). Animals intended for intraduodenal dosing were also fitted with one or more intraduodenal cannula (IDC) and those intended for intravenous dosing were fitted with a second JVC. Food was withheld from the animals for a minimum of twelve hours prior to test article administration and was returned approximately four hours post-dose. Water was supplied ad libitum.
Intraduodenal doses composed of 1.5 mg of zanamivir and varying amounts of an enhancer (glycerol or Capmul MCM L8) were injected directly into the duodenum via the IDC. To determine absolute bioavailability of the intraduodenal administered drug, intravenous dosing was conducted by the injection of 1.5 mg of zanamivir in 200 µL of PBS through a JVC. For some experiments, the absorption enhancer was administered intraduodenally 2 hr prior to administering 1.5 mg of zanamivir in PBS through a second IDC. Each intraduodenal dose was followed with the introduction of a small air bubble (∼10 µL) in the cannula followed by a flush of 125 µL of PBS to ensure the dose was given in full. The volume of PBS used for cannula flush was consistent across the treatment groups. The cannula was tied to prevent the PBS remaining in the cannula from entering the duodenum.
Blood samples collected via the JVC, approximately 400 µL each, were obtained at 2 min, 5 min, 15 min, 30 min, 60 min, 90 min, and 120 min, with sodium heparin used as an anti-coagulant. Each sample was placed into a chilled tube containing the anticoagulant and kept on ice until centrifugation at 4°C, 3,000× g, for 5 min. The plasma supernatants were stored at −70°C until LC-MS analysis.
Dosing solution samples were assayed by liquid chromatography-mass spectrometry (LC-MS/MS) using electrospray ionization. The chromatographic system consisted of Perkin Elmer series 200 micropumps and autosampler equipped with a Waters Atlantic® HILIC Silica […], 2.1×50 mm column. The mass spectrometer was a PE Sciex API 4000 with electrospray interface in multiple reaction monitoring mode. […] Stock solutions (1 mg/mL zanamivir) were prepared in water. Standards (eight concentrations) were prepared in the appropriate matched matrix (HBSSg or Sprague-Dawley rat plasma containing sodium heparin) and diluted 50-fold with methanol. Experimental samples were identically treated.

[2] = cited from earlier work
[3] = intraduodenal, 1.5 mg/animal in PBS, Capmul MCM L8 given 2 hr prior
[4] = intraduodenal, 1.5 mg/animal in PBS, glycerol given 2 hr prior
[5] = intraduodenal, 1.5 mg/animal, 50 µL vehicle Capmul MCM L8
[6] = intraduodenal, 1.5 mg/animal, 50 µL vehicle PBS
[7] = intraduodenal, 1.5 mg/animal, 50 µL vehicle glycerol
[8] = 0.75 mg, Figure 5 experiment, intraduodenal, 0.75 mg zanamivir, 50 µL Capmul MCM L8
[9] = 1.5 mg, intraduodenal, 1.5 mg/animal in PBS, Capmul MCM L8 given 2 hr prior
[10] = 1.5 mg, intraduodenal, 1.5 mg/animal in PBS, glycerol given 2 hr prior
[11] = 1.5 mg, intraduodenal, 1.5 mg/animal, 50 µL vehicle Capmul MCM L8
[12] = 1.5 mg, intraduodenal, 1.5 mg/animal, 50 µL vehicle PBS
[13] = 1.5 mg, intraduodenal, 1.5 mg/animal, 50 µL vehicle glycerol
[14] = 1.5 mg, Figure 5 experiment, intraduodenal, 1.5 mg zanamivir, 50 µL Capmul MCM L8
[15] = 3 mg, Figure 5 experiment, intraduodenal, 3.0 mg zanamivir, 50 µL Capmul MCM L8

For `CC(=O)N[C@H]1[C@H]([C@H](O)[C@H](O)CO)OC(C(=O)O)=C[C@@H]1N=C(N)N` [Zanamivir, zanamivir], the “Increase in apparent permeability coefficient (Papp) compared to no-enhancer control” value (Caco-2 cell monolayers; 0.25% Capmul MCM L8, pH 7.4) was > 5 fold and 5.2 fold, the “Increase in apparent permeability coefficient (Papp) compared to no-enhancer control” value (Caco-2 cell monolayers; 5% glycerol, pH 7.4) was > 5 fold and 5.6 fold and the “Absolute bioavailability relative to negative control” value ([1]; both enhancers (glycerol, Capmul MCM L8) given 2 hr prior to zanamivir) was “equivalent to that of the negative control”. The Absorption enhancement ([1]; enhancer (glycerol or Capmul MCM L8) given intraduodenally 2 hr prior to 1.5 mg zanamivir in PBS) was “No absorption enhancement; also recorded: no enhanced absorption”, the “Increase of absolute bioavailability compared to PBS” value ([1]; intraduodenal, 1.5 mg zanamivir in 50 µL glycerol) was 4.7 fold and the “Dose-normalized AUClast” value [1, 3] was 12.7 kg·ng·h/mL/mg. For the same compound, the “Dose-normalized AUC∞” value [1, 3] was 13 kg·ng·h/mL/mg, the “Dose-normalized AUClast” value [1, 4] was 21.1 kg·ng·h/mL/mg and the “Dose-normalized AUC∞” value [1, 4] was 29.1 kg·ng·h/mL/mg. The “Dose-normalized AUClast” value [1, 5] was 715 kg·ng·h/mL/mg, the “Dose-normalized AUC∞” value [1, 5] was 753 kg·ng·h/mL/mg and the “Dose-normalized AUClast” value [1, 6] was 30.6 kg·ng·h/mL/mg. For the same compound, the “Dose-normalized AUC∞” value [1, 6] was 46.6 kg·ng·h/mL/mg, the “Dose-normalized AUClast” value [1, 7] was 145 kg·ng·h/mL/mg and the “Dose-normalized AUC∞” value [1, 7] was 153 kg·ng·h/mL/mg. The Cmax [1, 8] was 1430 ng/mL, the Tmax [1, 8] was 4.8 min and the AUC(0-t) [1, 9] was 66.1 ng·h/mL. The AUC(0-t) [1, 10] was 112 ng·h/mL, the AUC(0-t) [1, 11] was 3800 ng·h/mL and the AUC(0-t) [1, 12] was 162 ng·h/mL. The AUC(0-t) [1, 13] was 754 ng·h/mL, the AUC(0-inf) [1, 9] was 69.8 ng·h/mL and the AUC(0-inf) [1, 10] was 156 ng·h/mL. The AUC(0-inf) [1, 11] was 4000 ng·h/mL, the AUC(0-inf) [1, 12] was 244 ng·h/mL and the AUC(0-inf) [1, 13] was 781 ng·h/mL. The Cmax ([1]; 1.5 mg, Figure 4 experiment, intraduodenal, 1.5 mg zanamivir, 25 µL Capmul MCM L8) was 1650 ng/mL, the Cmax ([1]; 1.5 mg, Figure 4 experiment, intraduodenal, 1.5 mg zanamivir, 50 µL Capmul MCM L8) was 2120 ng/mL and the Cmax ([1]; 1.5 mg, Figure 4 experiment, intraduodenal, 1.5 mg zanamivir, 75 µL Capmul MCM L8) was 2570 ng/mL. It also gave a Cmax [1, 14] of 3920 ng/mL, a Cmax [1, 9] of 48.6 ng/mL and a Cmax [1, 10] of 77.4 ng/mL. The Cmax [1, 11] was 7230 ng/mL, the Cmax [1, 12] was 134 ng/mL and the Cmax [1, 13] was 948 ng/mL. The half-life ([1]; 1.5 mg, 1.5 mg/animal in PBS, Capmul MCM L8 given 2 hr prior) was 51.6 min, the half-life ([1]; 1.5 mg, 1.5 mg/animal in PBS, glycerol given 2 hr prior) was 74.4 min and the half-life ([1]; 1.5 mg, 1.5 mg/animal, 50 µL vehicle Capmul MCM L8) was 29.4 min. It also gave a half-life ([1]; 1.5 mg, 1.5 mg/animal, 50 µL vehicle PBS) of 49.8 min, a half-life ([1]; 1.5 mg, 1.5 mg/animal, 50 µL vehicle glycerol) of 17.4 min and a Tmax [1, 14] of 4.8 min. It also gave a Tmax ([1]; 1.5 mg, intraduodenal, 1.5 mg zanamivir mixed with Capmul MCM L8) of 5 min, a Tmax [1, 9] of 60 min and a Tmax [1, 10] of 34.8 min. The Tmax [1, 11] was 4.8 min, the Tmax [1, 12] was 30 min and the Tmax [1, 13] was 30 min. The Cmax ([1]; 1.5 mg/animal, intraduodenal, 50 µL vehicle Capmul MCM L8) was > 7200 ng/mL, the Cmax [1, 15] was 7000 ng/mL and the Tmax [1, 15] was 8.4 min. For the same compound, the bioavailability [1, 9] was 0.66%, the bioavailability [1, 10] was 1.1% and the bioavailability [1, 11] was 37.7%. The bioavailability [1, 12] was 1.59%, the bioavailability [1, 13] was 7.53% and the Oral bioavailability [2] was “under 2%”.
